In BindingDB's records for doi:10.1021/acs.jmedchem.9b01317 (Fudan University, 2020) one finds IC50 data, which are given here for 1 compound.

This assay in a line: Inhibition of RIPK3 in human HT-29 cells assessed as reduction in TSZ-induced necroptosis by Cell Titer Glo assay.

What is called IC50 is the concentration that gives 50% inhibition. For the compound `CC(=O)O[C@@H]1CCC(C)(C)[C@H]2C[C@@H](O)C3=C[C@@H](CCC(=O)[C@@]21C)[C@H](C)C3=O`, the IC50 is 200 nM.
